Source: article PMC10036753, “Orally disintegrating tablets containing famotidine nanoparticles provide high intestinal absorbability via the energy-dependent endocytosis pathway” (Frontiers in Bioengineering and Biotechnology, 2023)

Key:
[1] = without bead-milling treatment
Method: First, 3 mL of each FAM dispersion were incubated in 5 mL test tubes in the dark at 20°C for 28 days. Images of the FAM dispersions were captured with a digital camera. The dispersions (50 μL) were withdrawn from 5 mm under the surface at the indicated time intervals (0, 7, 14, 21, and 28 days), and the FAM concentration was measured using the HPLC methods described above. In this study, the difference in FAM concentrations before and after the start of the experiment was estimated, and the changes in FAM levels on the surface were defined as the dispersibility of the FAM dispersions.

[2] = Pharmacokinetic study of FAM tablet in the rat; assay type: in vivo, Wistar rats; details: Wistar, plasma, intravenous, single injection of FAM solution in DMSO (0.04 mg/kg) into the femoral vein
Method: FAM concentration was determined by HPLC using an LC-20AT HPLC system (Shimadzu Corp., Kyoto, Japan). A Luna® 5 µm C18 column (100 Å, 150 × 4.6 mm, GL Science Co., Inc., Tokyo, Japan) was used for the measurement, and the mobile phase [one-heptanesulfonic acid sodium salt/acetonitrile/methanol (25/6/1)] was followed at 0.25 mL/min. The sample was mixed with an internal standard (methyl p-hydroxybenzoate) in methanol and 10 µL of the mixture was injected into the HPLC system using an SIL-20AC HPLC auto injector. In this study, the FAM levels were measured at 254 nm (wavelength for detection).
Blood (200 μL) was collected from the right jugular vein at the indicated time intervals (0, 10, 20, 30, and 360 min). The collected blood was centrifuged at 800 × g for 15 min at 4°C, and the supernatant was used for measurement.

[3] = ref Jha et al., 2014; cited from earlier work
[4] = oral, 40 mg daily; ref Lyon, 1986; Ramchandran et al., 2011; cited from earlier work
[5] = ref Khalifa and Abdul Rasool, 2017; cited from earlier work
[6] = Particle size distribution of FAM dispersions and redispersed FAM tablets (NanoSight LM10); assay type: physicochemical
Method: The characterization of the FAM tablets and their redispersion were evaluated in accordance with our previous study ([Deguchi et al., 2021]; [Nagai et al., 2022]). Briefly, the shape and dimensions of the tablets were analyzed using ImageJ image analysis software 1.53. Hardness was measured using a Force Tester MCT-2150 (A&D Co., Ltd., Toshimaku, Japan), and friability was measured using an Oriental Reaction Motor (ORIENTAL MOTOR Co., Ltd., Tokyo, Japan). The disintegration of FAM tablets was evaluated using NT-2H (TOYAMA SANGO Co. Ltd., Osaka, Japan). The friability and disintegration of the FAM tablets were measured according to the Japanese Pharmacopoeia (18th edition). The FAM tablets were dispersed in 10 mL of purified water and the redispersion, solubility, viscosity, and intestinal penetration were measured. The particle distributions of the FAM dispersions and redispersed FAM tablets were measured by […] NanoSight LM10 (Quantum Design Japan, Tokyo, Japan), and the measurement time, wavelength, and viscosity were set to 60 s, 405 nm (blue) and 1.27 mPa s, respectively. Scanning electron microscopy (SEM) images were obtained using NeoScope™ JCM-7000 (JEOL Ltd., Tokyo, Japan). […] The viscosity of the redispersed FAM tablet was measured at 20°C–40°C using an SV-1A viscometer (A&D Company, Limited, Tokyo, Japan).

H2 receptors = details: ref Hassan et al., 1990; Patel and Patel, 2013; cited from earlier work

- Time after preparation at which FAM was precipitated [1]: 24 h
- Vd ([2]; read-out: Distribution volume (V d)): 0.064 L
- k el ([2]; read-out: Elimination rate constant (k e) (converted)): 2.17e-05 s⁻¹
- Mean particle size of FAM ([6]; dispersion with bead-milling treatment): 108 ± 5.7 nm
- Mean particle size of FAM ([6]; dispersion without bead-milling treatment): 23.7 ± 2.1 µm
SMILES: NC(N)=Nc1nc(CSCCC(N)=NS(N)(=O)=O)cs1 [FAM, Famotidine]
- Intestinal penetration after oral administration [3]: < 50%
- Tolerability [4]: well tolerated
- BCS classification [5]: class III
- Inhibitory effect relative to cimetidine (H2 receptors): 20 fold
- Inhibitory effect relative to ranitidine (H2 receptors): 7.5 fold
